In patent publication US10815238B2, “Antimicrobial compounds and methods of making and using the same” (BIOVERSYS AG, priority 2013, dated 2020):
Where two headings read alike, the source gives them in different places.

Assays:
[1] = tested on: Eschericia coli (E. coli) strain ATCC25922; test: Standard microdilution assay, MIC against E. coli ATCC25922; type: cell-based; conditions: Escherichia coli
How it was run: (§1)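 Scoring as + or − used a 16 micrograms/mL cutoff on minimum inhibitory concentrations. These came from CLSI-standard microdilution, quality-controlled with reference strains tested in the same run.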

[2] = tested on: Staphylococcus aureus (S. aureus) 11540 strain; test: Standard microdilution assay, MIC against S. aureus 11540; type: cell-based; conditions: read-out: MIC S. aureus
How it was run: as §1

[3] = E. coli strain ATCC25922, standard microdilution assay, cutoff 16 micrograms/mL, read-out: MIC E. Coli
[4] = S. aureus 11540 strain, standard microdilution assay, cutoff 16 micrograms/mL

MIC [1, 3] [µg/mL] | MIC [2, 4] [µg/mL] | Structure (SMILES) | MIC ([1]; ATCC25922, read-out: MIC E. Coli) [µg/mL] | MIC [2] [µg/mL]
> 16 | < 16 | C[C@H](N)CCCc1cc(Cl)c(F)c(-c2cc3cn(-c4ccc(C5(N)CNC5)cc4)c(=O)nc3[nH]2)c1 [Compound 458] | – | –
> 16 | > 16 | C[C@H](N)CCCc1cc(Cl)c(F)c(-c2cc3cn(-c4ccc([C@@H]5CCC[C@@H](CCn6cccn6)N5)cc4)c(=O)nc3[nH]2)c1 [Compound 530] | – | –
< 16 | < 16 | C[C@H](N)CCN1CC[C@@H](c2cc3cn(-c4ccc([C@H](C)NCCCNC(=N)N)cc4)c(=O)nc3[nH]2)C1 [Compound 573] | – | –
< 16 | < 16 | C[C@H](N)CCCc1cc(-c2cc3cn(-c4ccc([C@@H]5CCC[C@@H](CCNC(=N)N)N5)cc4)c(=O)nc3[nH]2)cc(C(F)(F)F)c1 [Compound 486] | – | –
> 16 | > 16 | C[C@H](N)CCCc1cc(OC(F)(F)F)c(F)c(-c2cc3cn(-c4ccc([C@@H]5COC[C@@H](CO)N5)cc4)c(=O)nc3[nH]2)c1 [Compound 453] | – | –
> 16 | > 16 | C[C@H](N)CCCc1cc(Cl)c(F)c(-c2cc3cn(-c4ccc([C@@H]5CCC[C@@H](CCC(=O)O)N5)cc4)c(=O)nc3[nH]2)c1 [Compound 514] | – | –
< 16 | < 16 | C[C@H](CN)CN1CC[C@@H](c2cc3cn(-c4ccc([C@H](C)NCCCNC(=N)N)cc4)c(=O)nc3[nH]2)C1 [Compound 570] | – | –
< 16 | < 16 | C[C@H](N)CCCc1cc(Cl)c(F)c(-c2cc3cn(-c4ccc([C@@H]5CCO[C@@H](CCCNC(=N)N)C5)cc4)c(=O)nc3[nH]2)c1 [Compound 523] | – | –
< 16 | < 16 | C[C@H](N)CCCc1cc(Cl)c(F)c(-c2cc3cn(-c4ccc([C@@H]5CCC[C@@H](CCn6ccnc6)N5)cc4)c(=O)nc3[nH]2)c1 [Compound 533] | – | –
< 16 | < 16 | NCC[C@@H]1CCC[C@@H](c2ccc(-n3cc4cc(-c5cc(CCC[C@@H](N)CO)cc(Cl)c5F)[nH]c4nc3=O)cc2)N1 [Compound 483] | – | –
< 16 | < 16 | C[C@H](N)CCCN1CC[C@@H](c2cc3cn(-c4ccc([C@H](C)NCCCNC(=N)N)cc4)c(=O)nc3[nH]2)C1 [Compound 578] | – | –
> 16 | < 16 | CC1=NCC[C@@H]2CCC[C@@H](c3ccc(-n4cc5cc(-c6cc(CCC[C@H](C)N)cc(Cl)c6F)[nH]c5nc4=O)cc3)N12 [Compound 568] | – | –
< 16 | < 16 | C[C@H](N)CCCc1cc(Cl)c(F)c(-c2cc3cn(-c4ccc([C@H]5CCO[C@H](CCN)C5)cc4)c(=O)nc3[nH]2)c1 [Compound 554] | – | –
< 16 | < 16 | C[C@H](N)CCCc1cc(Cl)c(F)c(-c2cc3cn(-c4ccc(CN[C@H](CCNC(=N)N)Cn5ccnn5)cc4)c(=O)nc3[nH]2)c1 [Compound 499] | – | –
< 16 | < 16 | C[C@H](N)CCCc1cc(Cl)c(F)c(-c2cc3cn(-c4ccc([C@@H]5COC[C@@H](CN)N5)cc4)c(=O)nc3[nH]2)c1 [Compound 464] | – | –
< 16 | < 16 | C[C@H](N)CCCc1cc(OC(F)(F)F)c(F)c(-c2cc3cn(-c4ccc(C(=N)NCCCN)cc4)c(=O)nc3[nH]2)c1 [Compound 462] | – | –
> 16 | < 16 | C[C@H](N)CCCc1cc(Cl)c(F)c(-c2cc3cn(-c4ccc(C(=N)N)cc4)c(=O)nc3[nH]2)c1 [Compound 566] | – | –
< 16 | < 16 | C[C@H](N)CCCc1cc(Cl)c(F)c(-c2cc3cn(-c4ccc(C(=N)NCC[C@H](C)N)cc4)c(=O)nc3[nH]2)c1 [Compound 512] | – | –
< 16 | < 16 | CN/C(=C/[N+](=O)[O-])NCC[C@@H]1CCC[C@@H](c2ccc(-n3cc4cc(-c5cc(CCC[C@H](C)N)cc(Cl)c5F)[nH]c4nc3=O)cc2)N1 [Compound 517] | – | –
< 16 | < 16 | C[C@H](N)CCCc1cc(Cl)c(F)c(-c2cc3cn(-c4ccc([C@@H]5CCC[C@@H](CNCc6ccncc6)N5)cc4)c(=O)nc3[nH]2)c1 [Compound 558] | – | –
> 16 | > 16 | N=C(NC1CCCC1)c1ccc(-n2cc3cc(-c4ccc(S(=O)(=O)NC5CCNCC5)cc4)[nH]c3nc2=O)cc1 [Compound 504] | – | –
< 16 | < 16 | C[C@H](N)CCCc1cc(OC(F)(F)F)c(F)c(-c2cc3cn(-c4ccc([C@H](N)CCN)cc4)c(=O)nc3[nH]2)c1 [Compound 441] | – | –
< 16 | < 16 | C[C@H](N)CCCc1cc(Cl)c(F)c(-c2cc3cn(-c4ccc(CN[C@H](CCNC(=N)N)CNc5ncc[nH]5)cc4)c(=O)nc3[nH]2)c1 [Compound 536] | – | –
< 16 | < 16 | C[C@@H](CN)CN1CC[C@@H](c2cc3cn(-c4ccc([C@H](C)NCCCNC(=N)N)cc4)c(=O)nc3[nH]2)C1 [Compound 575] | – | –

Second part, the compound before the results:

Structure (SMILES) | MIC [1, 3] [µg/mL] | MIC [2, 4] [µg/mL] | MIC ([1]; ATCC25922, read-out: MIC E. Coli) [µg/mL] | MIC [2] [µg/mL]
COC[C@@H](CCN[C@@H](C)c1ccc(-n2cc3cc(-c4cc(CCC[C@H](C)N)cc(Cl)c4F)[nH]c3nc2=O)cc1)NC(=N)N [Compound 330] | < 16 | < 16 | – | –
C[C@H](N)CCCc1cc(OC(F)(F)F)c(F)c(-c2cc3cn(-c4ccc([C@H](C)N[C@H](CO)CCNC(=N)N)cc4)c(=O)nc3[nH]2)c1 [Compound 366] | < 16 | < 16 | – | –
C[C@H](N)CCCc1cc(Cl)c(F)c(-c2cc3cn(-c4ccc(CN5CC[C@H](CN6CCOCC6)NC5=N)cc4)c(=O)nc3[nH]2)c1 [Compound 418] | < 16 | < 16 | – | –
C[C@H](N)CCCc1cc(Cl)c(F)c(-c2cc3cn(-c4ccc(CN5CC[C@H](CN)NC5=N)cc4)c(=O)nc3[nH]2)c1 [Compound 417] | < 16 | < 16 | – | –
C[C@H](N)CCCc1cc(OC(F)(F)F)c(F)c(-c2cc3cn(-c4ccc([C@H](C)NCC[C@@H](Cn5cc(CN)nn5)NC(=N)N)cc4)c(=O)nc3[nH]2)c1 [Compound 327] | < 16 | < 16 | – | –
C[C@H](N)CCCc1cc(Cl)c(F)c(-c2cc3cn(-c4ccc(CN[C@@H](C)C[C@H](CCO)NC(=N)N)cc4)c(=O)nc3[nH]2)c1 [Compound 360] | < 16 | < 16 | – | –
COCC[C@H](CCN[C@@H](C)c1ccc(-n2cc3cc(-c4cc(CCC[C@H](C)N)cc(Cl)c4F)[nH]c3nc2=O)cc1)NC(=N)N [Compound 347] | < 16 | < 16 | – | –
C[C@H](N)CCCc1cc(Cl)c(F)c(-c2cc3cn(-c4ccc([C@H](C)NCC[C@@H](CSc5nccs5)NC(=N)N)cc4)c(=O)nc3[nH]2)c1 [Compound 365] | < 16 | < 16 | – | –
C=C[C@@H]1COC[C@H](c2ccc(-n3cc4cc(-c5cc(CCC[C@H](C)N)cc(Cl)c5F)[nH]c4nc3=O)cc2)N1 [Compound 374] | > 16 | > 16 | – | –
C[C@H](N)CCCc1cc(OC(F)(F)F)c(F)c(-c2cc3cn(-c4ccc([C@@H]5CC(CCNC(=N)N)CN5)cc4)c(=O)nc3[nH]2)c1 (stereo partly drawn) [Compound 408] | < 16 | < 16 | – | –
C=C[C@@H](C[C@H](C)NCc1ccc(-n2cc3cc(-c4cc(CCC[C@H](C)N)cc(Cl)c4F)[nH]c3nc2=O)cc1)NC(=N)N [Compound 336] | < 16 | < 16 | – | –
C[C@H](N)CCCc1cc(Cl)c(F)c(-c2cc3cn(-c4ccc([C@H](C)NCC[C@H](CN5CCOCC5)NC(=N)N)cc4)c(=O)nc3[nH]2)c1 [Compound 334] | < 16 | < 16 | – | –
C[C@H](N)CCCc1cc(OC(F)(F)F)c(F)c(-c2cc3cn(-c4ccc(CN[C@@H](C)C[C@H](CCO)NC(=N)N)cc4)c(=O)nc3[nH]2)c1 [Compound 361] | < 16 | < 16 | – | –
C[C@H](N)CCCc1cc(OC(F)(F)F)c(F)c(-c2cc3cn(-c4ccc([C@@H](C)NCCCN)cc4)c(=O)nc3[nH]2)c1 [Compound 320] | < 16 | < 16 | – | –
C[C@H](N)CCCc1cc(Cl)c(F)c(-c2cc3cn(-c4ccc([C@@H]5CCC[C@H](CCNC(=N)N)N5)cc4)c(=O)nc3[nH]2)c1 [Compound 438] | < 16 | < 16 | – | –
C[C@H](NCCCN)c1ccc(-n2cc3cc(-c4cc(CCC[C@H](C)NC(=N)N)cc(Cl)c4F)[nH]c3nc2=O)cc1 [Compound 324] | < 16 | < 16 | – | –
N=C(N)N[C@H](CN)CCNCc1ccc(-n2cc3cc(-c4cc(CCC[C@@H](N)CO)cc(Cl)c4F)[nH]c3nc2=O)cc1 [Compound 393] | < 16 | < 16 | – | –
C[C@@H](N)CCCc1cc(Cl)c(F)c(-c2cc3cn(-c4ccc([C@@H](C)NCCCNC(=N)N)cc4)c(=O)nc3[nH]2)c1 [Compound 370] | < 16 | < 16 | – | –
C=C[C@H](C[C@@H](C)NCc1ccc(-n2cc3cc(-c4cc(CCC[C@H](C)N)cc(Cl)c4F)[nH]c3nc2=O)cc1)NC(=N)N [Compound 371] | < 16 | < 16 | – | –
C[C@H](N)CCCc1cc(Cl)c(F)c(-c2cc3cn(-c4ccc([C@H](C)NCC[C@@H](/C=C/Cl)NC(=N)N)cc4)c(=O)nc3[nH]2)c1 [Compound 389] | < 16 | < 16 | – | –
C[C@H](NCCCNC(=N)N)c1ccc(-n2cc3cc(-c4cc(CCC[C@@H](N)COP(=O)(Oc5ccccc5)Oc5ccccc5)cc(Cl)c4F)[nH]c3nc2=O)cc1 [Compound 488] | – | – | < 16 | < 16
C[C@H](N)CCCc1cc(Cl)c(F)c(-c2cc3cn(-c4ccc([C@H](C)N[C@H](CO)CCNC(=N)N)cc4)c(=O)nc3[nH]2)c1 [Compound 367] | < 16 | < 16 | – | –
C=C[C@H](C[C@H](C)NCc1ccc(-n2cc3cc(-c4cc(CCC[C@H](C)N)cc(Cl)c4F)[nH]c3nc2=O)cc1)NC(=N)N [Compound 338] | < 16 | < 16 | – | –
CC[C@H](N)CCCc1cc(Cl)c(F)c(-c2cc3cn(-c4ccc(CNCC[C@H](CN)NC(=N)N)cc4)c(=O)nc3[nH]2)c1 [Compound 415] | < 16 | < 16 | – | –
